# Data from US20080058269A1, “Insulin Releasing Peptides” (priority 2003, published 2008).
# Where two headings read alike, the source gives them in different places.
# Legend:
# BRIN-BD11 cells [1] = type: cell-based, rat; details: for Insulin-releasing action in the presence of verapamil (in words): 50 μM verapamil, calcium channel blocker; for Insulin-releasing action in cells depolarised with KCl (in words): 30 mM KCl; for Insulin secretion (ng/10^6 cells/20 min): 8 observations; for Insulin secretion (ng/10^6 cells/20 min), Control: addition alone without peptide: verapamil 50 μM or KCl 30 mM
# Description: (§1) Culture of insulin-secreting cells: Clonal rat insulin-secreting BRIN-BD11 cells were cultured in RPMI-1640 tissue culture medium containing 10% (v/v) fetal calf serum, 1% (v/v) antibiotics (100 U/ml penicillin, 0.1 mg/ml streptomycin) and 11.1 mM glucose. The production and characterisation of BRIN-BD11 cells are described elsewhere. Cells were maintained in sterile tissue culture flasks (Corning, Glass Works, UK) at 37° C. in an atmosphere of 5% CO2 and 95% air using LEEC incubator (Laboratory Technical Engineering, Nottingham, UK). In three experimental series using purified peptides from Agalychnis calcarifer, Bombina variegata and Rana saharica cells were cultured overnight with 25 μM forskolin, 10 nM PMA or 0.1 μg/ml pertussis toxin prior to acute tests.
# Acute insulin release studies: Insulin release from BRIN-BD11 cells was determined using cell monolayers [McClenaghan N H, Barnett C R, Ah-Sing E, Abdel-Wahab Y H, O'Harte F P, Yoon T W, Swanston-Flatt S K and Flatt P R 1996 Characterization of a novel glucose-responsive insulin-secreting cell line, BRIN-BD11, produced by electrofusion. Diabetes 45 1132-1140]. The cells were harvested with the aid of trypsin/EDTA (Gibco), seeded into 24-multiwell plates (Nunc, Rosklide, Denmark) at a density of […] per well, and allowed to attach overnight. Prior to acute test, cells were preincubated for 40 min at 37° C. in a 1.0 ml Krebs Ringer bicarbonate buffer (115 mM NaCl, 4.7 mM KCl, 1.28 MM CaCl2, 1.2 MM KH2PO4, 1.2 mM MgSO4, 10 mM NaHCO3, 5 g/l bovine serum albumin, pH 7.4) supplemented with 1.1 mM glucose. Test incubations were performed for 20 min at 37° C. using the same buffer supplemented with 5.6 mM glucose in the absence (control) and presence of various venom fractions, peaks (equivalent to approx. 25 μl dried HPLC fraction) or test agents as indicated in the Figures. Cell viability after 20 min test incubations was assessed by modified neutral red assay [Hunt S M, Chrzanowska C, Barnnett C R, Brand H N and Fawell J K 1987 A comparison of in vitro cytotoxicity assays and their application to water samples. Alternatives to Laboratory Animals 15 20-29]. After incubation, aliquots of buffer were removed and stored at −20° C. for insulin radiomnimmunoassay [Flatt P R. and Bailey C J 1981 Abnormal plasma glucose and insulin responses in heterozygous lean (ob/+) mice. Diabetologia 20 573-577].
# BRIN-BD11 cells [2] = assay: Acute insulin release from BRIN-BD11 cells cultured overnight with forskolin, PMA or pertussis toxin; type: cell-based, rat; details: acute test at 5.6 mM glucose; for Stimulatory effect on insulin secretion in cells cultured overnight with PMA: 10 nM PMA overnight (protein kinase C pathway); for Stimulatory effect on insulin secretion in cells cultured overnight with pertussis toxin: 0.1 μg/ml pertussis toxin overnight (G-protein pathway); for Stimulatory effect on insulin secretion in cells cultured overnight with forskolin: 25 μM forskolin overnight (desensitised cyclic AMP-protein kinase A pathway)
# Description: FIG. 8 illustrates the dependence of the stimulatory effects of 1653.2 Da purified peptide (peak 1.10) from Agalychnis calcarifer on intracellular pathways mediated by protein kinase A (forskolin), protein kinase C (PMA) or pertussis toxin-sensitive G-proteins. Legend: Acute effects of the 13 amino acid 1653.2 Da purified peptide (peak 1.10) from Agalychnis calcarifer on forskolin and PMA on insulin secretion from BRIN-BD11 cells cultured overnight in the absence (control) and presence of 25 μM forskolin, 10 nM PMA or 0.1 μg/ml pertussis toxin. Acute incubations were performed at 5.6 mM glucose. Values are the mean ±SEM for 8 separate observations. ***P<0.001 compared with 5.6 mM glucose alone under same culture conditions. ^ΔΔΔp<0.001 compared with respective test reagent following control culture.
# FIG. 9 illustrates the dependence of the stimulatory effects of 1641.7 Da, 1662.6 Da, 1619.8 Da and 1650.5 Da purified peptides (peaks 21, 22, 23 and 24) from Bombina variegata on intracellular pathways mediated by protein kinase A (forskolin), protein kinase C (PMA) or pertussis toxin-sensitive G-proteins. Legend: Acute effects of 1641.7, 1662.6, 1619.8 and 1650.5 Da purified peptides (peaks 21, 22, 23 and 24) from Bombina variegata on forskolin and PMA on insulin secretion from BRIN-BD11 cells cultured overnight in the absence (control) and presence of 25 μM forskolin, 10 nM PMA or 0.1 μg/ml pertussis toxin. Acute incubations were performed at 5.6 mM glucose. Values are the mean ±SEM for 8 separate observations. **P<0.001 compared with 5.6 mM glucose alone under same culture conditions. ^ΔP<0.001 compared with respective test reagent following control culture.
# FIG. 10 illustrates the dependence of the stimulatory effects of 4920.4 Da and 4801.2 Da purified peptides (peaks 5.1 and 5.4) from Rana saharica on intracellular pathways mediated by protein kinase A (forskolin), protein kinase C (PMA) or pertussis toxin-sensitive G-proteins. Legend: Acute effects of 4920.4 and 4801.2 Da purified peptides (peaks 5.1 and 5.4) from Rana saharica on forskolin and PMA on insulin secretion from BRIN-BD11 cells cultured overnight in the absence (control) and presence of 25 μM forskolin, 10 nM PMA or […] pertussis toxin. Acute incubations were performed at 5.6 mM glucose. Values are the mean ±SEM for 8 separate observations. ***P<0.001 compared with 5.6 mM glucose alone under same culture conditions. ^ΔΔP<0.001 compared with respective test reagent following control culture.
# as §1
# Acute insulin release studies: Insulin release from BRIN-BD11 cells was determined using cell monolayers [McClenaghan N H, Barnett C R, Ah-Sing E, Abdel-Wahab Y H, O'Harte F P, Yoon T W, Swanston-Flatt S K and Flatt P R 1996 Characterization of a novel glucose-responsive insulin-secreting cell line, BRIN-BD11, produced by electrofusion. Diabetes 45 1132-1140]. The cells were harvested with the aid of trypsin/EDTA (Gibco), seeded into 24-multiwell plates (Nunc, Rosklide, Denmark) at a density of […] per well, and allowed to attach overnight. […]
# [3] = Table 10, no addition, 5.6 mM glucose, control 1.69 ± 0.17
# [4] = Table 10, peptide plus KCl (30 mM), 5.6 mM glucose
# [5] = Table 10, peptide plus verapamil (50 μM), 5.6 mM glucose
# [6] = peptides from Rana saharica, 5.6 mM glucose, mean ± SEM, 3 observations, no-peptide control 1.87 ± 0.06
# [7] = peptides from Agalychnis litodryas, 5.6 mM glucose, mean ± SEM, 3 observations, no-peptide control 1.95 ± 0.16
# [8] = peptides from Phyllomedusa trinitatis, 5.6 mM glucose, no-peptide control 1.47 ± 0.04
compound,measurement,setting,value
"ALSILRGLEKLAKMGIALTNCKATKKC [Peptide 3.8, 2873.5 Da peptide from Rana palustris, 46% ID to Brevinin-1]",Insulin release (ng/10^6 cells/20 mins),"BRIN-BD11 cells [1]; peptides from Rana palustris, 5.6 mM glucose, no-peptide control 1.467 ± 0.04",2.48 ± 0.44 ng/10^6 cells/20 mins
"GIFSKLAGKKLKNLLISGLKNVGKEVGMDVVRTGIDIAGCKIKGEC [Peptide 5.4, peptide from Rana saharica matching Esculentin-1B]",Insulin-releasing action in the presence of verapamil (in words),BRIN-BD11 cells [1],not inhibited
same,Insulin-releasing action in cells depolarised with KCl (in words),BRIN-BD11 cells [1],clearly evident
same,Insulin secretion (ng/10^6 cells/20 min),BRIN-BD11 cells [1]; [3],2.89 ± 0.19 ng/10^6 cells/20 min
same,Insulin secretion (ng/10^6 cells/20 min),BRIN-BD11 cells [1]; [4],11.84 ± 0.98ΔΔΔ*** ng/10^6 cells/20 min
same,Insulin secretion (ng/10^6 cells/20 min),BRIN-BD11 cells [1]; [5],2.79 ± 0.10 ng/10^6 cells/20 min
same,Insulin release (ng/10^6 cells/20 mins),BRIN-BD11 cells [1]; [6],3.30 ± 0.22 ng/10^6 cells/20 mins
same,Stimulatory effect on insulin secretion in cells cultured overnight with PMA,BRIN-BD11 cells [2],abolished
same,Stimulatory effect on insulin secretion in cells cultured overnight with pertussis toxin,BRIN-BD11 cells [2],abolished
same,Stimulatory effect on insulin secretion in cells cultured overnight with forskolin,BRIN-BD11 cells [2],abolished
MLADVFEKIMGD . . . [Peptide 1.7],Insulin release (ng/10^6 cells/20 mins),BRIN-BD11 cells [1]; [7],4.22 ± 0.48 ng/10^6 cells/20 mins
AVITGACERDVQCGGGTCCAVSLI . . . [Peptide 4.23],Insulin release (ng/10^6 cells/20 mins),BRIN-BD11 cells [1]; [6],4.25 ± 0.17 ng/10^6 cells/20 mins
"GILLDKLKNFAKTAGKGVLQSLLNTASCKLSGQC [Peptide 6.5, peptide from Rana saharica matching Brevinin-2EC]",Insulin release (ng/10^6 cells/20 mins),BRIN-BD11 cells [1]; [6],5.93 ± 0.47 ng/10^6 cells/20 mins
"CCCCCCCCCCCCCC(=O)O[C@@H]1[C@@H](C)[C@@]2(O)[C@@H](C=C(CO)C[C@]3(O)C(=O)C(C)=C[C@@H]23)[C@@H]2C(C)(C)[C@]12OC(C)=O [PMA, reference compound]",Stimulatory effect on insulin secretion in cells cultured overnight with PMA,BRIN-BD11 cells [2],abolition
"AVWKDFLKNIGKAAGKAVLNSVTDMVNE [Peptide 2.9, 3020.0 Da peptide from Agalychnis litodryas, 79% ID to Dermaseptin B IV precursor]",Insulin release (ng/10^6 cells/20 mins),BRIN-BD11 cells [1]; [7],7.46 ± 0.08 ng/10^6 cells/20 mins
"FLPLLAGLAANFLPKIFCKITRKC [Peptide 8.3, peptide from Rana saharica matching Brevinin-1E]",Insulin release (ng/10^6 cells/20 mins),BRIN-BD11 cells [1]; [6],3.53 ± 0.06 ng/10^6 cells/20 mins
"IYNAICPCKHCNKCKPGLLAN [Peptide 25, 2300.0 Da peptide from Bombina variegata, no database match]",Insulin release (ng/10^6 cells/20 mins),BRIN-BD11 cells [1],2.39 ± 0.30 ng/10^6 cells/20 mins
"Pyr-QRLGHQWAVGHLM-amidated (N-terminal pyroglutamate, C-terminal amide) [Peptide 21, peptide from Bombina variegata, (His)^6Bombesin, 93% ID to bombesin]",Insulin release (ng/10^6 cells/20 mins),BRIN-BD11 cells [1],4.66 ± 0.24 ng/10^6 cells/20 mins
same,Insulin-releasing action in the presence of verapamil (in words),BRIN-BD11 cells [1],not affected
same,Insulin-releasing action in cells depolarised with KCl (in words),BRIN-BD11 cells [1],clearly evident
same,Insulin secretion (ng/10^6 cells/20 min),"BRIN-BD11 cells [1]; Table 9, no addition, 5.6 mM glucose, control 1.69 ± 0.17",3.65 ± 0.05 ng/10^6 cells/20 min
same,Insulin secretion (ng/10^6 cells/20 min),"BRIN-BD11 cells [1]; Table 9, peptide plus KCl (30 mM), 5.6 mM glucose",13.68 ± 1.42ΔΔΔ*** ng/10^6 cells/20 min
same,Insulin secretion (ng/10^6 cells/20 min),"BRIN-BD11 cells [1]; Table 9, peptide plus verapamil (50 μM), 5.6 mM glucose",4.25 ± 0.82 ng/10^6 cells/20 min
same,Stimulatory effect on insulin secretion in cells cultured overnight with PMA,BRIN-BD11 cells [2],did not affect
same,Stimulatory effect on insulin secretion in cells cultured overnight with pertussis toxin,BRIN-BD11 cells [2],did not affect
same,Stimulatory effect on insulin secretion in cells cultured overnight with forskolin,BRIN-BD11 cells [2],abolished
"GIFSKFGRKKIKNLLISGLKNVGKEVGMDVVRTGIDIAGCKIKGEC [Peptide 5.1, peptide from Rana saharica, 98% ID to Esculentin-1]",Insulin-releasing action in the presence of verapamil (in words),BRIN-BD11 cells [1],not inhibited
same,Insulin-releasing action in cells depolarised with KCl (in words),BRIN-BD11 cells [1],clearly evident
same,Insulin secretion (ng/10^6 cells/20 min),BRIN-BD11 cells [1]; [3],2.96 ± 0.32 ng/10^6 cells/20 min
same,Insulin secretion (ng/10^6 cells/20 min),BRIN-BD11 cells [1]; [4],10.11 ± 0.81ΔΔΔ*** ng/10^6 cells/20 min
same,Insulin secretion (ng/10^6 cells/20 min),BRIN-BD11 cells [1]; [5],2.88 ± 0.28 ng/10^6 cells/20 min
same,Insulin release (ng/10^6 cells/20 mins),BRIN-BD11 cells [1]; [6],3.32 ± 0.22 ng/10^6 cells/20 mins
same,Stimulatory effect on insulin secretion in cells cultured overnight with PMA,BRIN-BD11 cells [2],abolished
same,Stimulatory effect on insulin secretion in cells cultured overnight with pertussis toxin,BRIN-BD11 cells [2],abolished
same,Stimulatory effect on insulin secretion in cells cultured overnight with forskolin,BRIN-BD11 cells [2],abolished
"[Cl-].[K+] [KCl, reference compound]","Insulin secretion (ng/10^6 cells/20 min), Control","BRIN-BD11 cells [1]; Table 8, 5.6 mM glucose",5.32 ± 0.38 ΔΔΔ ng/10^6 cells/20 min
same,"Insulin secretion (ng/10^6 cells/20 min), Control","BRIN-BD11 cells [1]; Table 9, 5.6 mM glucose",5.33 ± 0.38ΔΔΔ ng/10^6 cells/20 min
same,"Insulin secretion (ng/10^6 cells/20 min), Control","BRIN-BD11 cells [1]; Table 10, 5.6 mM glucose",5.33 ng/10^6 cells/20 min
"ALWKDILKNVGKAAGKAVLNTVTDMVNQ [Peptide 2.10, peptide from Phyllomedusa trinitatis, 100% ID to Dermaseptin B IV precursor]",Insulin release (ng/10^6 cells/20 mins),BRIN-BD11 cells [1]; [8],2.356 ± 0.34 ng/10^6 cells/20 mins
"KGAAKGLLEVASCKLSKSC [Peptide 4.22, 1892.6 Da peptide from Rana saharica, 68.4% ID to Rugosin A]",Insulin release (ng/10^6 cells/20 mins),BRIN-BD11 cells [1]; [6],3.47 ± 0.40 ng/10^6 cells/20 mins
"FLPIIAGVAAKVFPKIFCAISKKC [Peptide 4.1, peptide from Rana pipiens identical to pipinin-1]",Insulin release (ng/10^6 cells/20 mins),"BRIN-BD11 cells [1]; peptides from Rana pipiens, 5.6 mM glucose, mean ± SEM, 3 observations, no-peptide control 2.76 ± 0.13",4.15 ± 0.01 ng/10^6 cells/20 mins
"GILSTIKDFAIKAGKGAAKGLLEMASCKLSGQC [Peptide 5.6, 3309.2 Da peptide from Rana saharica, 67% ID to Brevinin-2EB]",Insulin release (ng/10^6 cells/20 mins),BRIN-BD11 cells [1]; [6],2.86 ± 0.37 ng/10^6 cells/20 mins
XXPLAPFFQAVFK . . . [Peptide 1.8],Insulin release (ng/10^6 cells/20 mins),BRIN-BD11 cells [1]; [8],2.48 ± 0.37 ng/10^6 cells/20 mins
